Reference: PubChem BioAssay (NCI)
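Compound exposure: 48 hours, 5 concentrations, 96-well plates. Here, GI50 denotes the concentration required for 50% inhibition of growth. TGI is the concentration that stops growth completely.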

Assays:
Test in all cases: inhibition of tumour cell growth, NCI panel, 48 h
[1] = system: ACHN renal
[2] = system: EKVX NSCLC
[3] = system: OVCAR-3 ovarian
[4] = system: RPMI-8226 leukemia
[5] = system: RXF 393 renal
[6] = system: SF-268 CNS
[7] = system: A498 renal
[8] = system: HOP-92 NSCLC
[9] = system: SW-620 colon
[10] = system: PC-3 prostate

Compound | TGI [1] | TGI [2] | TGI [3] | TGI [4] | TGI [5] | TGI [6] | TGI [7] | TGI [8] | TGI [9] | GI50 [7] | GI50 [1] | GI50 [2] | GI50 [8] | GI50 [3] | GI50 [10] | TGI [10] | GI50 [5] | GI50 [6] | GI50 [9] | GI50 [4]
O=S(=O)(c1cccc(N=C=S)c1)c1cccc(N=C=S)c1 | 34.5 µM | > 100 µM | 24 µM | 83.9 µM | 30 µM | 39.8 µM |  |  |  |  |  |  |  |  |  |  |  |  |  | 
Cc1cc(C)nc(NS(=O)(=O)c2ccc(Nc3c4ccccc4nc4c(C(=O)Nc5ccc(S(=O)(=O)N=C(N)N)cc5)cccc34)cc2)n1 | > 100 µM | > 100 µM | > 100 µM | > 100 µM | 85.1 µM | > 100 µM | > 100 µM | > 100 µM | > 100 µM |  |  |  |  |  |  |  |  |  |  | 
O=C1Nc2ccccc2N=CC1NC(=O)C(c1ccccc1)c1ccccc1 (stereo unspecified) | > 100 µM | > 100 µM | > 100 µM | > 100 µM | > 100 µM | > 100 µM | > 100 µM | > 100 µM | > 100 µM |  |  |  |  |  |  |  |  |  |  | 
O=C(CCCCCCN1CC(=O)N2[C@@H](c3ccc(Cl)c(Cl)c3)c3[nH]c4ccccc4c3C[C@H]2C1=O)NO | 12.9 µM | > 33.3 µM | 6.57 µM |  | 6.04 µM | 10.5 µM | 9.92 µM | 7.41 µM | 9.3 µM | 5.28 µM | 5.34 µM | 7.71 µM | 1.59 µM | 1.62 µM | 2.39 µM | 10.7 µM | 1.73 µM | 4.66 µM | 1.97 µM | 
CC12CCC(=O)N1c1ccc([N+](=O)[O-])cc1N2 (stereo unspecified) | > 100 µM | > 100 µM | > 100 µM | > 100 µM | > 100 µM | > 100 µM | > 100 µM |  | > 100 µM |  |  |  |  |  |  |  |  |  |  | 
COc1ccc(CCC2c3cc(OC)c(OC)cc3CCN2C)cc1OC (stereo unspecified) | > 100 µM | > 100 µM | > 100 µM | > 100 µM | > 100 µM | > 100 µM |  | > 100 µM | > 100 µM |  |  |  |  |  |  |  |  |  |  | 
O=S(=O)(/C=C/C(=C/c1ccccc1)S(=O)(=O)c1ccccc1)c1ccccc1 | 3.14 µM | 3.15 µM | 3.13 µM | 3.4 µM | 3.19 µM | 4.1 µM |  |  |  |  |  |  |  |  |  |  |  |  |  | 
O=C(Nc1cccc(-n2cc(-c3ccncc3)c(-c3cc(O)cc(Cl)c3)n2)c1)c1cc(C(F)(F)F)cc(C(F)(F)F)c1 | > 100 µM |  | 25.7 µM | 12.7 µM | 4.35 µM | > 100 µM | 90.8 µM |  | > 100 µM | 4.75 µM | 4.98 µM |  |  | 3.28 µM | 2.28 µM | 22.5 µM | 1.69 µM | 6.38 µM | 4.48 µM | 2.5 µM
C[CH2][Sn]([CH2]C)([O]C(=O)c1ccccc1OC)[O][Sn]([CH2]C)([CH2]C)[O]C(=O)c1ccccc1OC | > 100 µM | > 100 µM | > 100 µM |  | > 100 µM | > 100 µM | > 100 µM | > 100 µM | > 100 µM | 44.4 µM | > 100 µM | > 100 µM | 89.4 µM | > 100 µM |  |  | 43.3 µM | > 100 µM | 44.8 µM | 
